In ChEMBL document CHEMBL6103656, “Discovery of BT-114143, a Novel and Potent Phosphoric Acid-Containing Small-Molecule Plasminogen Activation Inhibitor for Hyperfibrinolysis” (J Med Chem, 2025):
Active and inactive are the calls of the source. No cut-off for these calls is given here.

What was measured:
Blood = assay: Ratio of compound IC50 to TXA IC50 in anti-fibrinolytic activity in healthy human fresh blood by plasma clot lysis; format: functional
[1] = Toxicity in Sprague-Dawley rat assessed as no observed adverse effect level (NOAEL) treated for 14 days; details: in vivo, time 14 day
Plasminogen [2] = target: T1, Plasminogen (Homo sapiens, UniProt P00747); assay: Binding affinity to biotinylated Plasminogen (unknown origin) assessed as dissociation constant by surface plasmon resonance (SPR) analysis
T1 sequence (P00747 97-580 limits assumed): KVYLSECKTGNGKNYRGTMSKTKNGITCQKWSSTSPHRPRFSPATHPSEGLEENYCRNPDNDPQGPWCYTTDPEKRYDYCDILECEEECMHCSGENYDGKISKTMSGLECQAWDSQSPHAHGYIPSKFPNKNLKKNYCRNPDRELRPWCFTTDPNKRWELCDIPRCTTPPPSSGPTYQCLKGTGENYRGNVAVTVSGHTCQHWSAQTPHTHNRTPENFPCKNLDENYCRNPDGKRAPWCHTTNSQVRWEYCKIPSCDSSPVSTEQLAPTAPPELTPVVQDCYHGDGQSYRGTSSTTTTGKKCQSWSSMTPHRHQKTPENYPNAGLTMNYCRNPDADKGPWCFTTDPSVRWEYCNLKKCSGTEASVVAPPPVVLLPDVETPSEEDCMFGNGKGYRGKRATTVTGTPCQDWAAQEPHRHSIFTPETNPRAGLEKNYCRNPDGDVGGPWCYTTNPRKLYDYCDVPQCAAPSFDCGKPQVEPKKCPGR
T1 sequence (P00747 581-810 limits assumed): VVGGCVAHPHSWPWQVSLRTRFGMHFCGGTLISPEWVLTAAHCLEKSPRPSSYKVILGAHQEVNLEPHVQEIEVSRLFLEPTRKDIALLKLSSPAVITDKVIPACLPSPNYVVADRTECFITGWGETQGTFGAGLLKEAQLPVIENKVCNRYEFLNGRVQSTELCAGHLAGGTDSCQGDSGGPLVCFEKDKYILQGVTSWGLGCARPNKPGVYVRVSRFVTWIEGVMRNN

[3] = Maximum tolerated dose in Sprague-Dawley rat treated intravenously twice a day; format: toxicity, organism-based; details: in vivo, route iv
[4] = Half life in beagle dog at 2 mg/kg, IM measured upto 24 hrs by LC-MS/MS analysis; format: ADME, organism-based, Canis lupus familiaris; details: in vivo
[5] = Half life in Sprague-Dawley rat at 2 mg/kg, IM measured upto 24 hrs by LC-MS/MS analysis; format: ADME, organism-based; details: in vivo
[6] = Volume of distribution at steady state in beagle dog at 2 mg/kg, iv measured upto 24 hrs by LC-MS/MS analysis; format: ADME, organism-based, Canis lupus familiaris; details: in vivo
[7] = Clearance in Sprague-Dawley rat at 2 mg/kg, iv measured upto 24 hrs by LC-MS/MS analysis; format: ADME, organism-based; details: in vivo
[8] = target: Voltage-gated inwardly rectifying potassium channel KCNH2 (Homo sapiens, UniProt Q12809); assay: Inhibition of hERG; format: toxicity
Sequence of Voltage-gated inwardly rectifying potassium channel KCNH2 (Q12809 whole entry, the tested form may be a part): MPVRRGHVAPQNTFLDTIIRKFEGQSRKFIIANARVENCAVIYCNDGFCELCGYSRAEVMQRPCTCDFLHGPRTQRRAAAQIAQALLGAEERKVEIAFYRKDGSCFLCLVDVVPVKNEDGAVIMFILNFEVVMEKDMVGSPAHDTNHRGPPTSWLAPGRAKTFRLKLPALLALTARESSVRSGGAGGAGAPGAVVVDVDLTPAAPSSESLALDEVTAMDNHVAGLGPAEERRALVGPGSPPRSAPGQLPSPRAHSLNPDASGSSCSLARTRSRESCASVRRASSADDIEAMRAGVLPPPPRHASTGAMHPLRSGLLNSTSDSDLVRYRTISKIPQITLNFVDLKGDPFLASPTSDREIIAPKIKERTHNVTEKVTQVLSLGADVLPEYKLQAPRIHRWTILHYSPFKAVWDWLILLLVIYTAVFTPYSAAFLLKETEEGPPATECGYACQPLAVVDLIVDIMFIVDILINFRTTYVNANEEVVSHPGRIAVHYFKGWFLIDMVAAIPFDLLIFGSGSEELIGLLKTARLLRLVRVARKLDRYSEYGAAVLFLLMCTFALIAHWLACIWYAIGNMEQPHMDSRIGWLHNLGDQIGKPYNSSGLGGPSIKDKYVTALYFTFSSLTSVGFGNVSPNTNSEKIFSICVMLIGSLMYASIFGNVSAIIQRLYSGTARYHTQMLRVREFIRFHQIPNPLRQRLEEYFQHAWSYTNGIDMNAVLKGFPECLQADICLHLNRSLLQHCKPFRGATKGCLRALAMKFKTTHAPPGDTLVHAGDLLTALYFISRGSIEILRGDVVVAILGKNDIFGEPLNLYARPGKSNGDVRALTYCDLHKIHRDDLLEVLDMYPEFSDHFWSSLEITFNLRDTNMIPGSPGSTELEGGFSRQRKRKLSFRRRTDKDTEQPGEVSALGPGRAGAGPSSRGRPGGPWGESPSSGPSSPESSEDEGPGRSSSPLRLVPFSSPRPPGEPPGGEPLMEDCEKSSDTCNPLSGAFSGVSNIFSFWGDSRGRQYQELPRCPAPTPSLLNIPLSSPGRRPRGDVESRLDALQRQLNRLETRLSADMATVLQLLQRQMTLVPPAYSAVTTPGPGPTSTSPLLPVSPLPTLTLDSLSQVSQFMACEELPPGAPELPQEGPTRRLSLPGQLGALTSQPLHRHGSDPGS

Rattus norvegicus [9] = assay: Hemostatic effect in rt-PA enhanced Sprague-Dawley rat tail bleeding model assessed as reduction in tail bleeding time at 5 mg/kg infused into right jugular vein; format: functional, organism-based; details: route iv
[10] = Volume of distribution at steady state in Sprague-Dawley rat at 2 mg/kg, iv measured upto 24 hrs by LC-MS/MS analysis; format: ADME, organism-based; details: in vivo, read-out: Vdss
[11] = Half life in beagle dog at 2 mg/kg, iv measured upto 24 hrs by LC-MS/MS analysis; format: ADME, organism-based, Canis lupus familiaris; details: in vivo
[12] = AUC (0 to infinity) in Sprague-Dawley rat at 2 mg/kg, IM measured upto 24 hrs by LC-MS/MS analysis; format: ADME, organism-based; details: in vivo
[13] = AUC (0 to infinity) in beagle dog at 2 mg/kg, iv measured upto 24 hrs by LC-MS/MS analysis; format: ADME, organism-based, Canis lupus familiaris; details: in vivo
[14] = target: Glycine receptor (alpha-1/beta) (Homo sapiens, UniProt P23415+P48167); assay: Inhibition of glycine receptor alpha1beta (unknown origin); format: toxicity
Sequence of Glycine receptor (alpha-1/beta) (P23415 whole entry): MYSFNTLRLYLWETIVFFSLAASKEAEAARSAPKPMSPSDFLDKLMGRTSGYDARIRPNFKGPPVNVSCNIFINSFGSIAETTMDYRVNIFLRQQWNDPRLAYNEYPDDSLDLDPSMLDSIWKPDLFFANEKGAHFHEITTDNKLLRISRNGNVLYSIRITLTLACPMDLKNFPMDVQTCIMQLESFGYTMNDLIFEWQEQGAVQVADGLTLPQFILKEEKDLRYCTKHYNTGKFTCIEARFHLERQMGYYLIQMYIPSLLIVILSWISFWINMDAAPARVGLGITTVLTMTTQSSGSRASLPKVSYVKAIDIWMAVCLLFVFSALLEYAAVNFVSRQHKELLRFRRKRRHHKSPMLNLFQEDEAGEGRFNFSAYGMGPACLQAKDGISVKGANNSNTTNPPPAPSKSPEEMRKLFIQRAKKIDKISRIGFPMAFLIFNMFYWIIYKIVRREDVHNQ
Sequence of Glycine receptor (alpha-1/beta) (P48167 whole entry): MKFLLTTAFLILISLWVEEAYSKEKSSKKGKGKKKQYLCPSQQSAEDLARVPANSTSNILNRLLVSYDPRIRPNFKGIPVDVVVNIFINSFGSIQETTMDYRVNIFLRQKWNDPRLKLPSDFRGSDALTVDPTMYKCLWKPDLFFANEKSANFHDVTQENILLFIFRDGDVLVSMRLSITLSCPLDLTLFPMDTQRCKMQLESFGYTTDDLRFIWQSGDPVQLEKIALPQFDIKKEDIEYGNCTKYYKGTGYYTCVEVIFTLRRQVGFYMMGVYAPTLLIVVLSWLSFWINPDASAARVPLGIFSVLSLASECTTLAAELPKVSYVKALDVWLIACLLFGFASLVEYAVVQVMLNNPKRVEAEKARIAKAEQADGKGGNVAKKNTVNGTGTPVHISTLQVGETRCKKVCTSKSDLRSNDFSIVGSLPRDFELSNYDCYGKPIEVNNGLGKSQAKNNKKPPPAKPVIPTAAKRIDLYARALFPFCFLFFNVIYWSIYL

[15] = target: T2, GABA-A receptor; alpha-1/beta-2/gamma-2 (Homo sapiens, UniProt P14867+P18507+P47870); assay: Inhibition of GABA-A receptor alpha1beta2gamma2 (unknown origin); format: toxicity
T2 sequence (P14867 whole entry): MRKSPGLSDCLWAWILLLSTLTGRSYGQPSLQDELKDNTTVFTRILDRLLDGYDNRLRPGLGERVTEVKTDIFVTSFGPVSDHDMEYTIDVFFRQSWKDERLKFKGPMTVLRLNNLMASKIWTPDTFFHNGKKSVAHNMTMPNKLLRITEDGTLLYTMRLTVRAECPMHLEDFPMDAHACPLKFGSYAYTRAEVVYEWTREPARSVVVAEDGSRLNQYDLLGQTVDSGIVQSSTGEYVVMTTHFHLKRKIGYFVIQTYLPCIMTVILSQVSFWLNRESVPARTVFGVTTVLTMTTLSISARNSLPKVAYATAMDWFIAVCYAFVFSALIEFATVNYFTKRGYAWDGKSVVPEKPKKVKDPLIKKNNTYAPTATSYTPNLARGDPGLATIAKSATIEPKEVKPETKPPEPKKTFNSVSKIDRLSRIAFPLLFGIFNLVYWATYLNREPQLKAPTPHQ
T2 sequence (P47870 whole entry): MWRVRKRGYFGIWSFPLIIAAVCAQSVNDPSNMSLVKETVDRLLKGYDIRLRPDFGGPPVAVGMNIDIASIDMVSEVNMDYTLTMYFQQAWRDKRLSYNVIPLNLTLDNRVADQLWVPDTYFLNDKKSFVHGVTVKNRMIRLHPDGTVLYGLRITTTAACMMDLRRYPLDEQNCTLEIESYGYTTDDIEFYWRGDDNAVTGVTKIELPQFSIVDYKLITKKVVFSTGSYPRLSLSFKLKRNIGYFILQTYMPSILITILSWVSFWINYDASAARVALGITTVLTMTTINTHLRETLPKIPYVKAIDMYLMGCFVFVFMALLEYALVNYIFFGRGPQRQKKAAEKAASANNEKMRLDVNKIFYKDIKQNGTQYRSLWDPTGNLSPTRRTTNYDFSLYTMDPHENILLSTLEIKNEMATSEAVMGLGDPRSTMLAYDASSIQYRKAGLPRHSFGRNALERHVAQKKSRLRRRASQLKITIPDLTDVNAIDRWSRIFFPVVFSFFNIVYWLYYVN
T2 sequence (P18507 whole entry): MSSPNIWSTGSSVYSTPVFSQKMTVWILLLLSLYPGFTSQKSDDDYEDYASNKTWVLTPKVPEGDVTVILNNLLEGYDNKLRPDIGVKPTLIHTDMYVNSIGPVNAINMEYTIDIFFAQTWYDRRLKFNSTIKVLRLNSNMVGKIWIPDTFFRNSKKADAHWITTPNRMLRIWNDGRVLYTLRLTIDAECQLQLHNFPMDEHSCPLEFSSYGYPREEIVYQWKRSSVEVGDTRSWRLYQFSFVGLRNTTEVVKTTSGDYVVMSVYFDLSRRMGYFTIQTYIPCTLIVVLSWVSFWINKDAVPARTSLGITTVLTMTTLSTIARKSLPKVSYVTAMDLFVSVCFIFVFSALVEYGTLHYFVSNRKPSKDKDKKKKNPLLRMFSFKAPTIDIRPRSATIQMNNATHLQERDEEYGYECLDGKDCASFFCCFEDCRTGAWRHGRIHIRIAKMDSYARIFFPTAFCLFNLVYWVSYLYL

[16] = Toxicity in rat peripheral blood cells assessed as clastogenic effect by micronucleus test; format: cell-based; details: erythrocyte
[17] = Half life in Sprague-Dawley rat at 2 mg/kg, iv measured upto 24 hrs by LC-MS/MS analysis; format: ADME, organism-based; details: in vivo
[18] = Toxicity in beagle dog assessed as no observed adverse effect level (NOAEL) treated for 14 days; design: species or system Canis lupus familiaris; details: in vivo, time 14 day
Rattus norvegicus [19] = assay: Hemostatic effect in rt-PA enhanced Sprague-Dawley rat tail bleeding model assessed as reduction in tail bleeding time at 40 mg/kg infused into right jugular vein; format: functional, organism-based; details: route iv
[20] = AUC (0 to infinity) in Sprague-Dawley rat at 2 mg/kg, iv measured upto 24 hrs by LC-MS/MS analysis; format: ADME, organism-based; details: in vivo
[21] = Maximum tolerated dose in beagle dog treated intravenously twice a day; format: toxicity, organism-based, Canis lupus familiaris; details: in vivo, route iv
[22] = (§1) Inhibition of Plasminogen (unknown origin) binding to fibrin (unknown origin) interaction by surface plasmon resonance (SPR) analysis; design: species or system Homo sapiens
Homo sapiens = species: Homo sapiens; assay: as §1
[23] = target: Tissue-type plasminogen activator (Rattus norvegicus) (UniProt P19637); assay: Inhibition of recombinant tissue plasminogen activator (rt-PA)-induced fibrinolysis in Sprague-Dawley rat fresh whole blood assessed as thrombus dissolution within 30 mins after reaching maximum amplitude (LY30) at > 3 uM by thromboelastography analysis; format: functional, tissue-based
Sequence of Tissue-type plasminogen activator (Rattus norvegicus) (P19637 whole entry): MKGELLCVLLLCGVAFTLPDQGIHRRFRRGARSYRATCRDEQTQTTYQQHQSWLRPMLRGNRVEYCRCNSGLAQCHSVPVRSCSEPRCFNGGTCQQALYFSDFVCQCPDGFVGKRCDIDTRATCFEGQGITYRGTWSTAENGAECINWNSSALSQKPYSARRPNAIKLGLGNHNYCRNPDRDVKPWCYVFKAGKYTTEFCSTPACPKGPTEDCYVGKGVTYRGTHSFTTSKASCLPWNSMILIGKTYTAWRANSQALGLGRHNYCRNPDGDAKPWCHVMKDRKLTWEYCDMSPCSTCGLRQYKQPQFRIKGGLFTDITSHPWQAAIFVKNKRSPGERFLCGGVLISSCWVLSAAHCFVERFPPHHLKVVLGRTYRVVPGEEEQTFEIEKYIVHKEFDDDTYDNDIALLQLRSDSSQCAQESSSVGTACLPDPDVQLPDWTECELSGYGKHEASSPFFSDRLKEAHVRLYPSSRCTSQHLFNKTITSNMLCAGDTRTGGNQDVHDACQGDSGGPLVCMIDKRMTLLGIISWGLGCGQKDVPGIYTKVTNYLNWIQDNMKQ

[24] = Toxicity in CHO cells assessed as mutagenic effect by chromosome aberration test; format: cell-based, Cricetulus griseus; details: chinese hamster
[25] = AUC (0 to infinity) in beagle dog at 2 mg/kg, IM measured upto 24 hrs by LC-MS/MS analysis; format: ADME, organism-based, Canis lupus familiaris; details: in vivo
[26] = target: Tissue-type plasminogen activator (Homo sapiens) (UniProt P00750); assay: Inhibition of recombinant human tissue plasminogen activator (rt-PA)-induced fibrinolysis in human fresh whole blood assessed as thrombus dissolution within 30 mins after reaching maximum amplitude (LY30) by thromboelastography analysis; format: functional, tissue-based
Sequence of Tissue-type plasminogen activator (Homo sapiens) (P00750 36-562 limits assumed): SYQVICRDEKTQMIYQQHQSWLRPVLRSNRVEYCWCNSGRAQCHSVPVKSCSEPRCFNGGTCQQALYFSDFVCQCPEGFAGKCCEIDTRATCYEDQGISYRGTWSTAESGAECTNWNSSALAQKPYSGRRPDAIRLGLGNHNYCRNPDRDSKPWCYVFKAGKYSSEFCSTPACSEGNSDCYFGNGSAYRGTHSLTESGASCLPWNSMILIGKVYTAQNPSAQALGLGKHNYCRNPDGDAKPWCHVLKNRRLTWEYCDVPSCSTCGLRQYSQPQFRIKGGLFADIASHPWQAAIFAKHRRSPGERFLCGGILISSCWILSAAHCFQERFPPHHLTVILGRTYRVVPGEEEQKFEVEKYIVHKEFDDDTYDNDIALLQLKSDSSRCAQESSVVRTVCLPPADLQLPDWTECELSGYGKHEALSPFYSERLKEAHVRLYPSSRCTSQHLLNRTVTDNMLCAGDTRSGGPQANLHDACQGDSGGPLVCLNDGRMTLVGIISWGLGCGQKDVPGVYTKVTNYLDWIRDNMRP

Plasminogen [27] = target: T1, Plasminogen; assay: Inhibition of plasminogen activation assessed as inhibition of recombinant human tissue plasminogen activator (rt-PA)-induced clot lysis measured after clot lysis pre-incubated for 15 mins by buffer clot lysis assay

Cl.NC(=O)NC(=O)c1ccc2c(n1)CCNC2
Ratio IC50 (Blood): >10

Cl.O=P(O)(O)c1ccc2c(n1)C(N1CCSCC1)CNC2 (mixture of isomers)
Ratio IC50 (Blood): 0.21

CC(C)(C)CC1Cc2nc(P(=O)(O)O)ccc2CN1.Cl (mixture of isomers)
Ratio IC50 (Blood): 0.19

CN(C)S(=O)(=O)NC(=O)c1ccc2c(n1)CCNC2.Cl
Ratio IC50 (Blood): 0.99

Cl.O=P(O)(O)c1ccc2c(n1)CC(Cc1ccccc1)NC2 (mixture of isomers)
Ratio IC50 (Blood): 0.75

Cl.O=C(O)c1nc2c([nH]1)CCNC2
Ratio IC50 (Blood): >10

Cl.O=C(O)c1cnc2c(c1)CCNC2
Ratio IC50 (Blood): 2.16

CC(C)CCC1Cc2nc(P(=O)(O)O)ccc2CN1.Cl (mixture of isomers)
Ratio IC50 (Blood): 0.09

Cl.O=P(O)(c1ccccc1)c1ccc2c(n1)CCNC2
Ratio IC50 (Blood): 0.2

Cl.O=P(O)(O)c1ccc2c(n1)CC(CCc1ccccc1)NC2 (mixture of isomers)
Ratio IC50 (Blood): 0.2

Cl.O=S(=O)(O)c1ccc2c(n1)CCNC2
Ratio IC50 (Blood): 0.93

Cl.O=C(O)c1ccc2c(c1)CCNC2
Ratio IC50 (Blood): 0.63

Cl.O=P(O)(CCc1ccccc1)c1ccc2c(n1)CCNC2
Ratio IC50 (Blood): 0.36

Cl.O=C(O)c1ccc2c(n1)CCNC2
Ratio IC50 (Blood): 0.25

CCP(=O)(O)c1ccc2c(n1)CCNC2.Cl
Ratio IC50 (Blood): 0.86

Cl.O=P(O)(O)c1ccc2c(n1)CCNC2
NOAEL at 336 h [1]: 60 mg/kg | Kd (Plasminogen [2]): 21.1 µM | MTD [3]: > 500 mg/kg | half-life [4]: 12.8 h | half-life [5]: 2.41 h | Vdss [6]: 0.96 L/kg | Ratio IC50 (Blood): 0.19 | clearance [7]: 2.64 mL/min/kg | IC50 [8]: > 300 µM | Activity (Rattus norvegicus [9]): Active | Vd [10]: 0.473 L/kg | t1/2 [11]: 11.1 h | AUC(0-inf) [12]: 14200 ng·h/mL | AUC [13]: 16600 ng·h/mL | IC50 [14]: 540 µM | IC50 [15]: 782 µM | Activity [16]: Non-toxic | half-life [17]: 2.53 h | NOAEL at 336 h [18]: 70 mg/kg | Activity (Rattus norvegicus [19]): Active | AUC(0-inf) [20]: 11600 ng·h/mL | MTD [21]: > 500 mg/kg | IC50 [22]: 1.48 µM | IC90 (Homo sapiens): 4.71 µM | inhibition [23]: Active | Activity [24]: Non-toxic | AUC(0-inf) [25]: 16500 ng·h/mL | IC90 [26]: 1.01 µM | IC50 (Plasminogen [27]): 8.42 µM

Cl.NS(=O)(=O)c1ccc2c(n1)CCNC2
Ratio IC50 (Blood): 4.26

Cl.O=P(O)(O)c1ccc2c(n1)C(N1CCS(=O)(=O)CC1)CNC2 (mixture of isomers)
Ratio IC50 (Blood): 0.25
